The results in this text go back to patent US7989438B2, “Therapeutic compounds” (Istituto di Ricerche di Biologia Molecolare P. Angeletti SpA, priority 2007, dated 2011).

The assay deals with HCV subgenomic replication. Description: Cell based HCV replication assay (subgenomic replicon in Huh-7 cells, NS3 Cell-ELISA). The settings on record: activity ranges. The essentials: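 Huh-7 cells stably carrying the I377neo/NS3-3′/wt subgenomic replicon, seeded at 10^4 cells/well in DMEM/10% FCS and exposed to inhibitor for 96 h. NS3 expression was measured by Cell-ELISA (mAb 10E5/24, alkaline phosphatase, absorbance 405/620 nm), in duplicate. IC50 was fitted to the Hill equation, with background from parental Huh-7 cells.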

The mark [1] stands for this setting: Hepatitis C virus, Huh-7, Table 3, various macrocycles, read-out: IC50* (nM), Inhibition of HCV subgenomic replication.
Setting [2] is: Table 5, various macrocycles, read-out: IC50* (nM), Inhibition of HCV subgenomic replication.
[3] abbreviates: Table A, Huh-7 replicon cells, 96 hours, read-out: IC50 (nM), Inhibition of HCV subgenomic replication.

Like-named read-outs stand apart in the source and are kept apart here.

In the case of `CCN1CCNC2COc3cc(F)ccc3-c3c(C4CCCCC4)c4ccc(cc4n3C2)C(=O)NS(=O)(=O)N(C)CC1` [Example 204, (7R)-14-cyclohexyl-21-ethyl-3-fluoro-18-methyl-7,8-dihydro-6H-7,11-(epiminoethanoiminoethanoiminothioiminomethano)-indolo[1,2-e][1,5]benzoxazocin-15-one 17,17-dioxide], the IC50 (Table 2, various macrocycles, read-out: IC50* (nM), Inhibition of HCV subgenomic replication) is 25 to 150 nM. Consider `CN1C2CCN(CC2)CCN(C)S(=O)(=O)NC(=O)c2ccc3c(C4CCCCC4)c4n(c3c2)C[C@@H]1COc1ccccc1-4` [Example 302, (3R)-31-cyclohexyl-2,22-dimethyl-5-oxa-21-thia-2,13,20,22,25-pentaazahexacyclo[23.2.2.1^3,13.1^12,15.1^14,18.0^6,11]dotriaconta-6,8,10,12(31),14(30),15,17-heptaen-19-one 21,21-dioxide], for which the IC50 under setting [1] is less than 25 nM. Turning to `Cc1cccc2c1OCC1CCCN(C)CCN(C)S(=O)(=O)NC(=O)c3ccc4c(C5CCCCC5)c-2n(c4c3)C1` [Example 520, (7R)-14-cyclohexyl-4,18,21-trimethyl-7,8-dihydro-6H-7,11-(propanoiminoethanoiminothioiminomethano)indolo[1,2-e][1,5]benzoxazocin-15-one 17,17-dioxide], under setting [2], the IC50 is less than 25 nM.

`COc1cccc2c1OCC1Cn3c-2c(C2CCCCC2)c2ccc(cc23)C(=O)NS(=O)(=O)N(C)CCOCCN1C` [Example 519, (7R)-14-cyclohexyl-4-methoxy-18,24-dimethyl-7,8-dihydro-6H-7,11-(epiminoethanooxyethanoiminothioiminomethano)indolo[1,2-e][1,5]benzoxazocin-15-one 17,17-dioxide]: the IC50 under setting [2] was 25 to 150 nM.

Take `COc1ccc2c(c1)CC1CCN(C)CCN(C)S(=O)(=O)NC(=O)c3ccc4c(C5CCCCC5)c-2n(c4c3)C1` (stereo not drawn) [Compound A10, 13-cyclohexyl-3-methoxy-17,20-dimethyl-6,7-dihydro-5H-6,10-(ethanoiminoethanoiminothioiminomethano)indolo[2,1-a][2]benzazepin-14-one 16,16-dioxide]: under setting [3], the IC50 was in the range of 25 to 150 nM. `CN1CCOC2CCN(CC2)S(=O)(=O)NC(=O)c2ccc3c(C4CCCCC4)c4n(c3c2)C[C@@H]1COc1ccccc1-4` [Example 306, (20R)-31-cyclohexyl-21-methyl-18,24-dioxa-2-thia-1,3,10,21-tetraazahexacyclo[23.2.2.1^5,9.1^8,11.1^10,20.0^12,17]dotriaconta-5(32),6,8,11(31),12,14,16-heptaen-4-one 2,2-dioxide]: the half-inhibitory concentration (IC50) under setting [1] is 150 to 500 nM. For `Cc1cccc2c1OCC1Cn3c-2c(C2CCCCC2)c2ccc(cc23)C(=O)NS(=O)(=O)N(C)CCN(C)CCN1C` [Example 516, (7R)-14-cyclohexyl-4,18,21,24-tetramethyl-7,8-dihydro-6H-7,11-(epiminoethanoiminoethanoiminothioiminomethano)-indolo[1,2-e][1,5]benzoxazocin-15-one 17,17-dioxide], under setting [2], the IC50 is less than 25 nM.

As to `CN(C)CCN1CCC(C)(C)CCN(C)S(=O)(=O)NC(=O)c2ccc3c(C4CCCCC4)c4n(c3c2)CC1COc1ccccc1-4` [Compound A31, (7R)-14-cyclohexyl-24-[2-(dimethylamino)ethyl]-18,21,21-trimethyl-7,8-dihydro-6H-7,11-(epiminopentanoiminothioiminomethano)indolo[1,2-e][1,5]benzoxazocin-15-one 17,17-dioxide], under setting [3], the IC50 was less than 25 nM. Turning to `CN1CCN2CCCC2CO[C@@H]2COc3ccccc3-c3c(C4CCCCC4)c4ccc(cc4n3C2)C(=O)NS1(=O)=O` (stereo partly drawn) [Compound A17, (20S)-31-cyclohexyl-10-methyl-19,22-dioxa-9-thia-1,8,10,13-tetraazahexacyclo[18.9.1.1^2,6.1^3,29.0^13,17.0^23,28]dotriaconta-2(32),3,5,23,25,27,29(31)-heptaen-7-one 9,9-dioxide], for the setting “Hepatitis C virus, Table A, Huh-7 replicon cells, 96 hours, read-out: IC50 (nM), Inhibition of HCV subgenomic replication”, the IC50 fell in the range of 25 to 150 nM.
